Laboratory results published in patent US5218096A, “Lactoneotrehalose, and its preparation and uses” (Kabushiki Kaisha Hayashibara Seibutsu Kagaku Kenkyujo, priority 1990, dated 1993).
Converted amounts (≈) assume the structure as drawn. Where two headings read alike, the source gives them in different places.

What was measured:
[1] = system: Bacteroides distasonis JCM 5825; assay: Assimilation by intestinal microorganism; format: cell-based; conditions: 0.5 w/v % saccharide, PYF broth, 37° C., 96 hours
Protocol: (§1) The resultant broth was diluted 5-fold, and the turbidity of the diluted solution was determined at 750 nm in 1-cm cell cuvette. The growth of the intestinal microorganisms and the assimilability of lactoneotrehalose were both evaluated with the turbidity. As control, glucose and lactose were used in place of lactoneotrehalose.

[2] = system: Bifidobacterium adolescentis JCM 1275; assay: Assimilation by intestinal microorganism; format: cell-based; conditions: 0.5 w/v % saccharide, PYF broth, 37° C., 96 hours
Protocol: as §1

[3] = system: Bifidobacterium animalis JCM 1190; assay: Assimilation by intestinal microorganism; format: cell-based; conditions: 0.5 w/v % saccharide, PYF broth, 37° C., 96 hours
Protocol: as §1

[4] = system: Bifidobacterium breve JCM 1192; assay: Assimilation by intestinal microorganism; format: cell-based; conditions: 0.5 w/v % saccharide, PYF broth, 37° C., 96 hours
Protocol: as §1

[5] = system: Bifidobacterium infantis JCM 1222; assay: Assimilation by intestinal microorganism; format: cell-based; conditions: 0.5 w/v % saccharide, PYF broth, 37° C., 96 hours
Protocol: as §1

[6] = system: Bifidobacterium longum JCM 1217; assay: Assimilation by intestinal microorganism; format: cell-based; conditions: 0.5 w/v % saccharide, PYF broth, 37° C., 96 hours
Protocol: as §1

[7] = system: Escherichia coli IFO 3301; assay: Assimilation by intestinal microorganism; format: cell-based; conditions: 0.5 w/v % saccharide, PYF broth, 37° C., 96 hours
Protocol: as §1

[8] = system: Eubacterium aerofaciens ATCC 25986; assay: Assimilation by intestinal microorganism; format: cell-based; conditions: 0.5 w/v % saccharide, PYF broth, 37° C., 96 hours
Protocol: as §1

[9] = system: Eubacterium limosum JCM 6421; assay: Assimilation by intestinal microorganism; format: cell-based; conditions: 0.5 w/v % saccharide, PYF broth, 37° C., 96 hours
Protocol: as §1

[10] = system: Lactobacillus acidophilus JCM 1132; assay: Assimilation by intestinal microorganism; format: cell-based; conditions: 0.5 w/v % saccharide, PYF broth, 37° C., 96 hours
Protocol: as §1

[11] = system: Lactobacillus plantarum IFO 3070; assay: Assimilation by intestinal microorganism; format: cell-based; conditions: 0.5 w/v % saccharide, PYF broth, 37° C., 96 hours
Protocol: as §1

[12] = system: Peptostreptococcus prevotii ATCC 9321; assay: Assimilation by intestinal microorganism; format: cell-based; conditions: 0.5 w/v % saccharide, PYF broth, 37° C., 96 hours
Protocol: as §1

[13] = system: Streptococcus faecalis IAM 10065; assay: Assimilation by intestinal microorganism; format: cell-based; conditions: 0.5 w/v % saccharide, PYF broth, 37° C., 96 hours
Protocol: as §1

[14] = system: Clostridium sporogenes JCM 1416; assay: Assimilation by intestinal microorganism; format: cell-based; conditions: 0.5 w/v % saccharide, PYF broth, 37° C., 96 hours
Protocol: as §1

[15] = Digestion test in vitro, hydrolysis rate; format: in vitro ADME; conditions: salivary amylase, read-out: hydrolysis rate (the ratio of reducing sugars against total sugars)
Protocol: (§2) In accordance with the method reported in Okada et al., Journal of Japanese Society of Nutrition and Food Science, Vol.43, No.1, pp.23-29 (1990), a crystalline lactoneotrehalose specimen prepared by the method in Experiment 1 was tested for its digestibility in vitro, and the digestibility was evaluated based on the hydrolysis rate (the ratio of reducing sugars against total sugars).

[16] = Digestion test in vitro, hydrolysis rate; format: in vitro ADME; conditions: gastric juice, read-out: hydrolysis rate (the ratio of reducing sugars against total sugars)
Protocol: as §2

[17] = Digestion test in vitro, hydrolysis rate; format: in vitro ADME; conditions: amylopsin, read-out: hydrolysis rate (the ratio of reducing sugars against total sugars)
Protocol: as §2

[18] = Digestion test in vitro, hydrolysis rate; format: in vitro ADME; conditions: small intestinal mucosa enzyme; in vitro, enzyme of small intestinal mucous membrane; read-out: hydrolysis rate (the ratio of reducing sugars against total sugars)
Protocol: as §2

[19] = system: Enzyme of small intestinal mucous membrane; assay: Digestion test in vitro, hydrolysis rate; format: in vitro ADME; conditions: conclusion from Table 1
Protocol: as §2

[20] = system: microorganisms of the genus Bifidobacterium; assay: Assimilation by intestinal microorganism, overall finding; format: cell-based; conditions: conclusion from Table 3
Protocol: as §1

mice = assay: Acute toxicity test, oral
Source text: A crystalline lactoneotrehalose specimen, prepared by the method in Experiment 1, was orally administered to 7 week-old dd mice for acute toxicity test.

Solubility = format: physicochemical
Heat of dissolution = format: physicochemical
[21] = Hygroscopicity, deliquescence and moisture content; format: physicochemical
Source text: (9) Physical properties and color Colorless and transparent crystal having a true specific gravity of 1.59.

[22] = Acidity of aqueous solution; format: physicochemical
Coloring reaction = format: physicochemical

In the case of O=C[C@H](O)[C@@H](O)[C@H](O)[C@H](O)CO [Glucose, glucose], the “Judgement of turbidity (A750 × 5)” value [1] is reported as “± (0.1 or higher but less than 0.15)”, the “Judgement of turbidity (A750 × 5)” value [2] is reported as “++ (0.2 or higher but less than 0.3)” and the “Judgement of turbidity (A750 × 5)” value [3] is reported as “++ (0.2 or higher but less than 0.3)”. The “Judgement of turbidity (A750 × 5)” value [4] was “++ (0.2 or higher but less than 0.3)”, the “Judgement of turbidity (A750 × 5)” value [5] was “++ (0.2 or higher but less than 0.3)” and the “Judgement of turbidity (A750 × 5)” value [6] was “++ (0.2 or higher but less than 0.3)”. The “Judgement of turbidity (A750 × 5)” value [7] was “++ (0.2 or higher but less than 0.3)”, the “Judgement of turbidity (A750 × 5)” value [8] was “+++ (0.3 or higher)” and the “Judgement of turbidity (A750 × 5)” value [9] was “± (0.1 or higher but less than 0.15)”. For the same compound, the “Judgement of turbidity (A750 × 5)” value [10] was “+ (0.15 or higher but less than 0.2)”, the “Judgement of turbidity (A750 × 5)” value [11] was “+ (0.15 or higher but less than 0.2)” and the “Judgement of turbidity (A750 × 5)” value [12] was “- (less than 0.1)”. The “Judgement of turbidity (A750 × 5)” value [13] was “++ (0.2 or higher but less than 0.3)”.
For OC[C@H]1O[C@@H](O[C@H]2[C@H](O)[C@@H](O)C(O)O[C@@H]2CO)[C@H](O)[C@@H](O)[C@H]1O (stereo partly drawn) [Lactose, O-β-D-galactopyranosyl-(1→4)-D-glucose], the “Judgement of turbidity (A750 × 5)” value [1] was “± (0.1 or higher but less than 0.15)”, the “Judgement of turbidity (A750 × 5)” value [2] was “++ (0.2 or higher but less than 0.3)” and the “Judgement of turbidity (A750 × 5)” value [3] was “++ (0.2 or higher but less than 0.3)”. For the same compound, the “Judgement of turbidity (A750 × 5)” value [4] was “+++ (0.3 or higher)”, the “Judgement of turbidity (A750 × 5)” value [5] was “++ (0.2 or higher but less than 0.3)” and the “Judgement of turbidity (A750 × 5)” value [6] was “++ (0.2 or higher but less than 0.3)”. The “Judgement of turbidity (A750 × 5)” value [14] was “- (less than 0.1)”, the “Judgement of turbidity (A750 × 5)” value [7] was “± (0.1 or higher but less than 0.15)” and the “Judgement of turbidity (A750 × 5)” value [8] was “++ (0.2 or higher but less than 0.3)”. The “Judgement of turbidity (A750 × 5)” value [9] was “- (less than 0.1)”, the “Judgement of turbidity (A750 × 5)” value [10] was “+ (0.15 or higher but less than 0.2)” and the “Judgement of turbidity (A750 × 5)” value [11] was “+ (0.15 or higher but less than 0.2)”. The “Judgement of turbidity (A750 × 5)” value [12] was “- (less than 0.1)” and the “Judgement of turbidity (A750 × 5)” value [13] was “+ (0.15 or higher but less than 0.2)”.
With OC[C@H]1O[C@@H](O[C@H]2[C@H](O)[C@@H](O)[C@H](O[C@H]3O[C@H](CO)[C@@H](O)[C@H](O)[C@H]3O)O[C@@H]2CO)[C@H](O)[C@@H](O)[C@H]1O [lactoneotrehalose, O-β-D-galactopyranosyl-(1→4)-O-β-D-glucopyranosyl α-D-glucopyranoside] the metabolised [15] was 0%, the metabolised [16] was 0% and the metabolised [17] was 0%. For the same compound, the metabolised [18] was 60.2%, the “main site of hydrolysis” value [19] was “mainly hydrolyzed by the enzyme from intestinal mucous membrane” and the “Judgement of turbidity (A750 × 5)” value [1] was “- (less than 0.1)”. The “Judgement of turbidity (A750 × 5)” value [2] was “++ (0.2 or higher but less than 0.3)”, the “Judgement of turbidity (A750 × 5)” value [3] was “++ (0.2 or higher but less than 0.3)” and the “Judgement of turbidity (A750 × 5)” value [4] was “++ (0.2 or higher but less than 0.3)”. The “Judgement of turbidity (A750 × 5)” value [5] was “++ (0.2 or higher but less than 0.3)”, the “Judgement of turbidity (A750 × 5)” value [6] was “++ (0.2 or higher but less than 0.3)” and the “Judgement of turbidity (A750 × 5)” value [14] was “- (less than 0.1)”. For the same compound, the “Judgement of turbidity (A750 × 5)” value [7] was “- (less than 0.1)”, the “Judgement of turbidity (A750 × 5)” value [8] was “- (less than 0.1)” and the “Judgement of turbidity (A750 × 5)” value [9] was “- (less than 0.1)”. For the same compound, the “Judgement of turbidity (A750 × 5)” value [10] was “± (0.1 or higher but less than 0.15)”, the “Judgement of turbidity (A750 × 5)” value [11] was “- (less than 0.1)” and the “Judgement of turbidity (A750 × 5)” value [12] was “- (less than 0.1)”. The “Judgement of turbidity (A750 × 5)” value [13] was “- (less than 0.1)”, the “selective utilization by genus Bifidobacterium” value [20] was “selectively utilized at a relatively high-level by microorganisms of the genus Bifidobacterium” and the mortality (mice; 7 week-old dd mice, up to 5 g) was “no mouse died”. The toxicity (mice; dd mice, conclusion) was “extremely low in toxicity”, the Solubility in solvents (Solubility; 0.1N hydrochloric acid) was “Readily soluble” and the Solubility in solvents (Solubility; 0.1N sodium hydroxide) was “Readily soluble”. The Solubility in solvents (Solubility; chloroform) was “insoluble”, the Solubility in solvents (Solubility; ethanol) was “scarcely soluble” and the Solubility in solvents (Solubility; ethyl acetate) was “insoluble”. For the same compound, the Solubility in solvents (Solubility; methanol) was “scarcely soluble”, the Solubility in solvents (Solubility; water) was “Readily soluble” and the solubility (Solubility; water, 25° C.) was 217 mg/mL (≈ 430 mM). The Heat of dissolution (Heat of dissolution) was 20.0 cal/g, the hygroscopicity and deliquescence [21] was “Free of hygroscopicity and deliquescence” and the “moisture content of crystals” value ([21]; Karl Fischer's method, predried in vacuo at 60° C. for 16 hours) was “less than 3.0%”. The “acidity of aqueous solution of the crystal” value [22] was “neutral or slight acidity”, the “Fehling's reaction” value (Coloring reaction) was “Negative” and the iodine coloration reaction (Coloring reaction) was “Negative”.
